Measured values from ChEMBL document CHEMBL4219266, “Identification of quinone analogues as potential inhibitors of picornavirus 3C protease in vitro” (Bioorg Med Chem Lett, 2018).
Activity calls are given as the source filed them. No cut-off for these calls is given here.

Legend:
[1] = biological target: Genome polyprotein (Coxsackievirus B3 (strain Nancy), UniProt P03313); test: Inhibition of human coxsackievirus B3 protease 3C expressed in Escherichia coli (BL21) using fluorogenic-Dabcyl-KEALFQGPPQFE-Edans as substrate after 1 hr by FRET assay
[2] = biological target: Genome polyprotein (Coxsackievirus B3 (strain Nancy)) (UniProt P03313); test: Inhibition of human coxsackievirus B3 protease 3C expressed in Escherichia coli (BL21) at 40 uM using fluorogenic-Dabcyl-KEALFQGPPQFE-Edans as substrate after 1 hr by FRET assay
[3] = biological target: Genome polyprotein (rhinovirus B14, UniProt P03303); test: Inhibition of recombinant human rhinovirus protease 3C using fluorogenic-Dabcyl-KTSAVLQSGFRKME-Edan as substrate after 5 mins by FRET assay; set-up: species or system Human rhinovirus sp.
[4] = biological target: Genome polyprotein (rhinovirus B14) (UniProt P03303); test: Inhibition of human rhinovirus protease 3C catalytic activity assessed as suppression of target protein cleavage at 50 uM after 30 mins by SDS-PAGE analysis; settings: Human rhinovirus sp.
[5] = biological target: Genome polyprotein (rhinovirus B14) (UniProt P03303); test: Inhibition of human rhinovirus protease 3C catalytic activity assessed as suppression of target protein cleavage at 5 uM after 30 mins by SDS-PAGE analysis; settings: Human rhinovirus sp.

Genome polyprotein (Coxsackievirus B3 (strain Nancy)), sequence (P03313 whole entry): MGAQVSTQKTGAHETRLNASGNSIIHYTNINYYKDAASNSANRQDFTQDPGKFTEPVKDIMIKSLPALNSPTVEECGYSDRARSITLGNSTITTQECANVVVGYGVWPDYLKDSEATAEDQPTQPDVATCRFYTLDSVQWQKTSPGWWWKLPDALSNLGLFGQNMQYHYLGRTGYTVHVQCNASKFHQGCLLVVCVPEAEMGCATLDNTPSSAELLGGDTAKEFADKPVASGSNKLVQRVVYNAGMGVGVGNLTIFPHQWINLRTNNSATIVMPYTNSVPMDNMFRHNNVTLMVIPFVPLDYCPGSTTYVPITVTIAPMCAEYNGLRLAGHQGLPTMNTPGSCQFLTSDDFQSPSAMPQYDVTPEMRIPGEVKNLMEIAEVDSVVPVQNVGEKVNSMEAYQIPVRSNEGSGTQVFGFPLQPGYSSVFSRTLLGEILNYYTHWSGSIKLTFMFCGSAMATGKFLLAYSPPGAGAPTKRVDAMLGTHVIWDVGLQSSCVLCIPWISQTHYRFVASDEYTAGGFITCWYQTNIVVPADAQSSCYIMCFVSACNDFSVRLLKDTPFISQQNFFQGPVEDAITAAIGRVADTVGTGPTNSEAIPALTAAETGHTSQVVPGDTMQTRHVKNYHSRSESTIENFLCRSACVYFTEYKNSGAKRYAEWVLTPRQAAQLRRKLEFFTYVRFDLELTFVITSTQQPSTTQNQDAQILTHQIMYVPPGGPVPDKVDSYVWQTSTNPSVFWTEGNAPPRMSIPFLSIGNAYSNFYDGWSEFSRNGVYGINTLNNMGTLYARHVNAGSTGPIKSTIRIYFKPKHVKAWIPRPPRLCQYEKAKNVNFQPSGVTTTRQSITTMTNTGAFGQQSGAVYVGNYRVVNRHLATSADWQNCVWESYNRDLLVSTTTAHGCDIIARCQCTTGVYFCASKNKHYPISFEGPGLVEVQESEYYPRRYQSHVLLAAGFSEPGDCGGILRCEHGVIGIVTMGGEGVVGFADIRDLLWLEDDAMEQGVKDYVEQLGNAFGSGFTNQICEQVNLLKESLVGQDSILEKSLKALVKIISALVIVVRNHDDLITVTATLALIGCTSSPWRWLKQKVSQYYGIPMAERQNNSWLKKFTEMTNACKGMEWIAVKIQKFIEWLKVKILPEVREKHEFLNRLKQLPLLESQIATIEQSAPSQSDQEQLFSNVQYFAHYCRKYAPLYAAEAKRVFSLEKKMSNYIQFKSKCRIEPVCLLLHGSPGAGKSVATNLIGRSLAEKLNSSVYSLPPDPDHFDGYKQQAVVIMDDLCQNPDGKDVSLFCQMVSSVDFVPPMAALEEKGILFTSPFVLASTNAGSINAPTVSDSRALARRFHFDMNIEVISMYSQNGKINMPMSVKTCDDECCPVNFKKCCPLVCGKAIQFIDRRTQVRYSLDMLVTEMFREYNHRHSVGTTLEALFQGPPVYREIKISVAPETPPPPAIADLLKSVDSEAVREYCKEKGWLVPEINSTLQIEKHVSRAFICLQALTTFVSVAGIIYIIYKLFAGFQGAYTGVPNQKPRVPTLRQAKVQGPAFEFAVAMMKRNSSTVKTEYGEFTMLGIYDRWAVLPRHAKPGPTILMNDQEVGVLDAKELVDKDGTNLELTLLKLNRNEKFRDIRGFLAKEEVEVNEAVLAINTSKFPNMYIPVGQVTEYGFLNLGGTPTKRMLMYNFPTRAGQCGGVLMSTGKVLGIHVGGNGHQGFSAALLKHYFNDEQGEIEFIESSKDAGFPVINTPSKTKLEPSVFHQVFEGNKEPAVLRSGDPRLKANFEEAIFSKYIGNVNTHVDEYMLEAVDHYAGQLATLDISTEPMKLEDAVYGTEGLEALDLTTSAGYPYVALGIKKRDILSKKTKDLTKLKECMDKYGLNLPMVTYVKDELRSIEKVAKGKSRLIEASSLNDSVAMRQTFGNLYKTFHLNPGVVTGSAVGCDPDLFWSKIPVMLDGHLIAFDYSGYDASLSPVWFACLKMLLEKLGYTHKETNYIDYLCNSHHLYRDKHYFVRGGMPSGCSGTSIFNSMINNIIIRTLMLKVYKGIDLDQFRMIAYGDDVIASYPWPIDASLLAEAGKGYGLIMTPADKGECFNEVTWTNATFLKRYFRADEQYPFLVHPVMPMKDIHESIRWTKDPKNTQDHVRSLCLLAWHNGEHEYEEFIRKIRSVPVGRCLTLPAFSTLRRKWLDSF
Genome polyprotein (Coxsackievirus B3 (strain Nancy), UniProt P03313), sequence (P03313 1541-1723 limits assumed): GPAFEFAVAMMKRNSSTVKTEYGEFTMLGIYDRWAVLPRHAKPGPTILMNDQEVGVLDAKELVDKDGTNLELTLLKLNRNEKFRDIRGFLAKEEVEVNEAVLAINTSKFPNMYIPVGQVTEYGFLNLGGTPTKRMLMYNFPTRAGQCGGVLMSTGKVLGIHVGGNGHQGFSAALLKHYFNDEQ
Genome polyprotein (rhinovirus B14, UniProt P03303), sequence (P03303 1538-1719 limits assumed): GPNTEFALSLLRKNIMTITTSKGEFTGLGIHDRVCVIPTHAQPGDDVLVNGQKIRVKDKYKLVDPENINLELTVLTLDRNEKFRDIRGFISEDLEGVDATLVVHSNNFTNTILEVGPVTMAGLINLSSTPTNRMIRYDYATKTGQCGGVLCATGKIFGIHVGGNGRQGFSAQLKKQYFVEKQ
Genome polyprotein (rhinovirus B14), sequence (P03303 whole entry): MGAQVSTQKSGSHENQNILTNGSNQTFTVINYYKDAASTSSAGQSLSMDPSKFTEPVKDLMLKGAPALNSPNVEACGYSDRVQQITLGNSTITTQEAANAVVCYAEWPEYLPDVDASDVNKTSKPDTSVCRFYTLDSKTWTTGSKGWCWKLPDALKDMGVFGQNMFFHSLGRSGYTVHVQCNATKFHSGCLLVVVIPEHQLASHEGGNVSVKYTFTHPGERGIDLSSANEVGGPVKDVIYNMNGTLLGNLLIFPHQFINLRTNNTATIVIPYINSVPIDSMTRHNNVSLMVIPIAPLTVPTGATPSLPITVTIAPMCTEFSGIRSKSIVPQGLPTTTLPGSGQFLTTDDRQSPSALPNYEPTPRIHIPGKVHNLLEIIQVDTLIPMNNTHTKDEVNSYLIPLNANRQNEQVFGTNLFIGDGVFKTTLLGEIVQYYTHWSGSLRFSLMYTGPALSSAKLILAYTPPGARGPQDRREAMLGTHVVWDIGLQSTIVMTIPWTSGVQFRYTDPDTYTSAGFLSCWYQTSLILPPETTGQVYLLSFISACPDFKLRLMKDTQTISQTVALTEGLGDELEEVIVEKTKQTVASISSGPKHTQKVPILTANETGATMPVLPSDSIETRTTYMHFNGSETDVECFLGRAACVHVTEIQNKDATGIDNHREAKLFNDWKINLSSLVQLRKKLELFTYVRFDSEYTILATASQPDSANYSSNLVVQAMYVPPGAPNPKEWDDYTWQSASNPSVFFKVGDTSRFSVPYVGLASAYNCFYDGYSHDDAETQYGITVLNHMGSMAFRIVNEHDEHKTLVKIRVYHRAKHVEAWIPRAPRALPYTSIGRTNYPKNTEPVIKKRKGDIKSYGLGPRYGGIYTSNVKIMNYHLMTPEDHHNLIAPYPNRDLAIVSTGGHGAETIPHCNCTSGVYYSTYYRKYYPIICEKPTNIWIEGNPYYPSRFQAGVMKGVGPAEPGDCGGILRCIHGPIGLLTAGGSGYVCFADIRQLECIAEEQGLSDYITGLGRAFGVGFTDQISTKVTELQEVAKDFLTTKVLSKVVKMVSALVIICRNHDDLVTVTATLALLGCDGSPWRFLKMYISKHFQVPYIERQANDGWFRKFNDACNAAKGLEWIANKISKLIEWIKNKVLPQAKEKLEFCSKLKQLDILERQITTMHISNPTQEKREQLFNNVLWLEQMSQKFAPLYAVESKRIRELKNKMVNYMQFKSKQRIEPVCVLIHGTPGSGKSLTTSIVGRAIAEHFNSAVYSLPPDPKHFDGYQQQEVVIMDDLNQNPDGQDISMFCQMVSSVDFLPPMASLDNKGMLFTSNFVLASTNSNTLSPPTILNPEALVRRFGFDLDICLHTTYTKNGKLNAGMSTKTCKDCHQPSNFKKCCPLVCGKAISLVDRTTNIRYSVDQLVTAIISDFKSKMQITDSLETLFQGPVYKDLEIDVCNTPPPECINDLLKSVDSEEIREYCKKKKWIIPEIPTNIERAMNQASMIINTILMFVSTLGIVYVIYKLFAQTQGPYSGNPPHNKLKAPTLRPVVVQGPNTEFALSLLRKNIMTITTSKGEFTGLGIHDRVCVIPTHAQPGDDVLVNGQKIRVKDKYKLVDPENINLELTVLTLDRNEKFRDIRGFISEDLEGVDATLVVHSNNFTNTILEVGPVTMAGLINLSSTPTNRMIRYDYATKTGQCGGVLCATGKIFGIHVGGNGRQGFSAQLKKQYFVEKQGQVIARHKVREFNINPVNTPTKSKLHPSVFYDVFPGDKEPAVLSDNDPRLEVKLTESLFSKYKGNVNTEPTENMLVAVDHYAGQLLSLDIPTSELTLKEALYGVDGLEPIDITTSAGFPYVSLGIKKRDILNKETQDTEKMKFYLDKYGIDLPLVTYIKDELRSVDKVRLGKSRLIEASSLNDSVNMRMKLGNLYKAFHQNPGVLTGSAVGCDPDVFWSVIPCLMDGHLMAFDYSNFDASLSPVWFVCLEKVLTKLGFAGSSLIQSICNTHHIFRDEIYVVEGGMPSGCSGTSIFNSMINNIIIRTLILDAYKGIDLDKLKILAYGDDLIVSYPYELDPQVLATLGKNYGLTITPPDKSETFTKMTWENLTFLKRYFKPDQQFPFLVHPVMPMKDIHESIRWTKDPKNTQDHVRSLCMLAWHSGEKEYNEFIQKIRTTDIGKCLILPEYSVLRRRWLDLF

For `O=C1C(Cl)=C(Nc2cccc(Cl)c2)C(=O)c2[nH]c(-c3ccncc3)nc21`, the IC50 [1] was 550 nM.
`O=C1C(Cl)=C(Cl)C(=O)c2ncccc21` gave an IC50 [1] of 630 nM.
For `CN(Cc1ccccc1)CC(C(=O)c1ccc(Cl)cc1)n1cnc2ccccc2c1=O` (centres undefined), the IC50 [1] was 6200 nM and the inhibition [2] was over 64%.
With `O=C1C(Sc2ccccc2)=C(Sc2ccccc2)C(=O)c2[nH]c(-c3ccncc3)nc21` the IC50 [1] was 790 nM.
With `O=C1C=CC(=O)N1c1ccc(OC(F)(F)C(F)F)c(N2C(=O)C=CC2=O)c1` the IC50 [1] was 1200 nM and the inhibition [2] was over 64%.
Work on `Cc1[nH]c2ccccc2c1C1=C(O)C(=O)c2ncccc2C1=O` yielded an IC50 [1] of 1100 nM.
For `Cc1nc2c([nH]1)C(=O)C(Nc1ccc(C(F)(F)F)cc1)=C(Cl)C2=O`, the IC50 [1] was 840 nM.
Compound `Cc1[nH]c2ccccc2c1C1=C(Cl)C(=O)c2ncccc2C1=O` has an IC50 [1] of 730 nM.
For `O=C1C(Oc2ccc(O)cc2)=C(Oc2ccc(O)cc2)C(=O)c2ncccc21`, the IC50 [1] was 1200 nM.
Compound `Cc1nc2c([nH]1)C(=O)C(Cl)=C(Nc1cc(F)cc(F)c1)C2=O` has an IC50 [3] of 8400 nM, an IC50 [1] of 900 nM and an inhibition [2] of over 64%. The inhibition [4] was “Active”.
With `COC(=O)/C=C/C(=O)[C@@H](NC(=O)OC(C)(C)C)C(C)C` the IC50 [1] was 1800 nM and the inhibition [2] was over 64%.
Work on `Cc1ccc(NC2=C(Cl)C(=O)c3nc(C)[nH]c3C2=O)cc1` yielded an IC50 [1] of 830 nM.
In the case of `Cc1ccc(N/N=C/c2c(O)cc(C)oc2=O)cc1`, the IC50 [1] is reported as 5400 nM and the inhibition [2] is reported as over 64%.
With `COc1ccc(OC2=C(Cl)C(=O)c3ccccc3C2=O)c([N+](=O)[O-])c1` the IC50 [3] was 850 nM, the IC50 [1] was 1700 nM and the inhibition [5] was “Active”. It also gave an inhibition [2] of over 64%.
Work on `O=C1C(Sc2ccc(Cl)cc2)=C(Sc2ccc(Cl)cc2)C(=O)c2[nH]c(-c3ccncc3)nc21` yielded an IC50 [1] of 570 nM.
In the case of `O=C(CCN1CCc2ccccc2CC1)c1ccc2c(c1)OCCO2`, the IC50 [1] is reported as 11100 nM and the inhibition [2] is reported as over 64%.
With `CC1(C)CC(=O)C2=C(C1)OC(=O)C2(Nc1ccccc1)C(F)(F)F` (centres undefined) the IC50 [1] was 8300 nM and the inhibition [2] was over 64%.
